Assay results taken from patent publication US20250041308A1, “BRUTON'S TYROSINE KINASE INHIBITORS AS ANTIVIRAL AGENTS” (University of Florida Research Foundation, Incorporated, priority 2022, published 2025).

What was measured:
Type in all cases: cell-based, Epstein-Barr virus (EBV)
[1] = test system: ZEBRA and cleaved caspase 1 in EBV-positive Mutu-I Burkitt lymphoma cells; assay: Immunoblotting for ZEBRA, procaspase 1 and cleaved caspase 1 in Mutu-I cells induced with sodium butyrate; settings: 1 μM for 2 hours before sodium butyrate for 24 hours, FIG. 7
Text: Cells were harvested and subjected to immunoblotting with monoclonal antibodies to ZEBRA, procaspase 1, cleaved caspase 1, or the control protein β-actin to analyze protein expression. […] Cleavage of caspase is a marker for programmed cell death.

[2] = test system: EBV lytic cycle (ZEBRA) in EBV-positive Mutu-I Burkitt lymphoma cells; assay: Flow cytometry for ZEBRA in Mutu-I cells, lytic cycle induced with sodium butyrate; settings: sodium butyrate 24 hours, 2 h pretreatment
Text: (§1) Cells were harvested, fixed and permeabilized, stained with a monoclonal antibody to the viral latent-to-lytic switch protein ZEBRA, and examined by flow cytometry. Cells were stained in parallel with an isotype-matched control antibody for placement of gates. […] Decreasing EBV switching to lytic phase decreases the risk of the B cells developing lymphoma.

[3] = test system: EBV lytic cycle proteins ZEBRA and EA-D in EBV-positive HH514-16 Burkitt lymphoma cell line; assay: Immunoblotting for ZEBRA and EA-D in HH514-16 cells induced with sodium butyrate
Text: Cells were harvested and subjected to immunoblotting with monoclonal antibodies to ZEBRA and EA-D (Early antigen-diffuse). EA-D is useful in the diagnosis of acute Epstein-Barr virus (EBV) infection and EBV reactivation and functions downstream of ZEBRA.
Cells were harvested and subjected to immunoblotting with monoclonal antibodies to ZEBRA or the control protein β-actin to analyze protein expression.

[4] = test system: EBV lytic cycle proteins ZEBRA and EA-D in EBV-positive Akata Burkitt lymphoma cell line; assay: Immunoblotting for ZEBRA and EA-D in Akata cells induced with anti-IgG; settings: varying concentrations 2 hours before anti-IgG for 24 hours, FIG. 3
Text: (§2) Cells were harvested and subjected to immunoblotting with monoclonal antibodies to ZEBRA and EA-D (Early antigen-diffuse).

[5] = test system: EBV lytic cycle (ZEBRA) in EBV-positive HH514-16 Burkitt lymphoma cell line; assay: Flow cytometry for ZEBRA in HH514-16 cells, lytic cycle induced with sodium butyrate; settings: for Percent positive cells ZEBRA: 2 h pretreatment
Text: as §1, with “ZEBRA (Z EBV Replication Activator),” for “ZEBRA,”, “cytometry. ZEBRA is an early lytic protein of EBV, encoded by BZLFI, that drives the lytic cascade.” for “cytometry.”

[6] = test system: EBV lytic cycle (ZEBRA) in EBV-positive HH514-16 Burkitt lymphoma cell line; assay: Flow cytometry for ZEBRA in HH514-16 cells, lytic cycle induced with AZA; settings: for Percent positive cells ZEBRA: 2 h pretreatment
Text: Cells were harvested, fixed and permeabilized, stained with a monoclonal antibody to the viral latent-to-lytic switch protein ZEBRA (Z EBV Replication Activator), and examined by flow cytometry. Cells were stained in parallel with an isotype-matched control antibody for placement of gates.

[7] = test system: EBV lytic cycle proteins ZEBRA and EA-D in EBV-positive HH514-16 Burkitt lymphoma cell line; assay: Immunoblotting for ZEBRA and EA-D in HH514-16 cells induced with AZA; settings: HH514-16, varying concentrations 2 hours before AZA for 24 hours, FIG. 2
Text: as §2

[8] = test system: EBV lytic cycle (ZEBRA) in EBV-positive Akata Burkitt lymphoma cell line; assay: Flow cytometry for ZEBRA in Akata cells, lytic cycle induced with rabbit-anti human IgG; settings: for Percent positive cells ZEBRA: Rabbit anti-human IgG induction 24 h, 2 h pretreatment
Text: Akata cells are an EBV-producer line established from a patient with Burkitt's lymphoma. Akata cells produce transforming virus upon treatment of cells with anti-immunoglobulin antibodies. Cells were harvested, fixed and permeabilized, stained with a monoclonal antibody to the viral latent-to-lytic switch protein ZEBRA (Z EBV Replication Activator), and examined by flow cytometry. Cells were stained in parallel with an isotype-matched control antibody for placement of gates.

[9] = HH514-16, varying concentrations 2 hours before sodium butyrate for 24 hours, FIG. 4
[10] = HH514-16, varying concentrations 2 hours before NaB for 24 or 48 hours, FIG. 1

CC#CC(=O)N1CCC[C@H]1c1nc(-c2ccc(C(=O)Nc3ccccn3)cc2)c2c(N)nccn12 [Acalabrutinib]
Cleaved caspase 1 (immunoblot) [1]: significantly reduced
expression of ZEBRA (immunoblot) [1]: significantly reduced
Percent ZEBRA positive cells ([2]; inhibitor conc. 1 μM): 1.15%
Percent ZEBRA positive cells ([2]; inhibitor conc. 10 μM): 0.92%
expression of ZEBRA (immunoblot) [3, 9]: significantly reduced

C=CC(=O)N1CCC([C@@H]2CCNc3c(C(N)=O)c(-c4ccc(Oc5ccccc5)cc4)nn32)CC1 [Zanubrutinib]
Cleaved caspase 1 (immunoblot) [1]: significantly reduced
expression of ZEBRA (immunoblot) [1]: significantly reduced
Percent ZEBRA positive cells ([2]; inhibitor conc. 1 μM): 0.65%
Percent ZEBRA positive cells ([2]; inhibitor conc. 10 μM): 0.85%
expression of ZEBRA (immunoblot) [3, 9]: significantly reduced

C=CC(=O)N1CCC[C@@H](n2nc(-c3ccc(Oc4ccccc4)cc3)c3c(N)ncnc32)C1 [Ibrutinib]
expression of EA-D (immunoblot) [4]: significantly reduced
expression of ZEBRA (immunoblot) [4]: significantly reduced
Percent ZEBRA positive cells ([2]; inhibitor conc. 0.5 μM): 0.52%
Percent ZEBRA positive cells ([2]; inhibitor conc. 1 μM): 0.73%
levels of ZEBRA (flow cytometry, in words) ([5]; HH514-16, NaB 24 or 48 hours, varying concentrations): decreased
Percent positive cells ZEBRA ([5]; HH514-16, Sodium Butyrate induction 24 h, ibrutinib 0.25 μM): 13%
Percent positive cells ZEBRA ([5]; HH514-16, Sodium Butyrate induction 24 h, ibrutinib 0.5 μM): 9.5%
Percent positive cells ZEBRA ([5]; HH514-16, Sodium Butyrate induction 24 h, ibrutinib 1 μM): 9.0%
Percent positive cells ZEBRA ([5]; HH514-16, Sodium Butyrate induction 24 h, ibrutinib 2 μM): 8.6%
Percent positive cells ZEBRA ([5]; HH514-16, Sodium Butyrate induction 24 h, ibrutinib 5 μM): 7.0%
Percent positive cells ZEBRA ([5]; HH514-16, Sodium Butyrate induction 48 h, ibrutinib 0.25 μM): 38%
Percent positive cells ZEBRA ([5]; HH514-16, Sodium Butyrate induction 48 h, ibrutinib 0.5 μM): 30%
Percent positive cells ZEBRA ([5]; HH514-16, Sodium Butyrate induction 48 h, ibrutinib 1 μM): 23%
Percent positive cells ZEBRA ([5]; HH514-16, Sodium Butyrate induction 48 h, ibrutinib 2 μM): 22%
Percent positive cells ZEBRA ([5]; HH514-16, Sodium Butyrate induction 48 h, ibrutinib 5 μM): 18%
levels of ZEBRA (flow cytometry, in words) ([6]; HH514-16, AZA 24 or 48 hours, varying concentrations): decreased
Percent positive cells ZEBRA ([6]; HH514-16, AZA induction 24 h, ibrutinib 0.25 μM): 13%
Percent positive cells ZEBRA ([6]; HH514-16, AZA induction 24 h, ibrutinib 0.5 μM): 11%
Percent positive cells ZEBRA ([6]; HH514-16, AZA induction 24 h, ibrutinib 1 μM): 9.0%
Percent positive cells ZEBRA ([6]; HH514-16, AZA induction 24 h, ibrutinib 2 μM): 10%
Percent positive cells ZEBRA ([6]; HH514-16, AZA induction 24 h, ibrutinib 5 μM): 9.0%
Percent positive cells ZEBRA ([6]; HH514-16, AZA induction 48 h, ibrutinib 0.25 μM): 13%
Percent positive cells ZEBRA ([6]; HH514-16, AZA induction 48 h, ibrutinib 0.5 μM): 13%
Percent positive cells ZEBRA ([6]; HH514-16, AZA induction 48 h, ibrutinib 1 μM): 15%
Percent positive cells ZEBRA ([6]; HH514-16, AZA induction 48 h, ibrutinib 2 μM): 13%
Percent positive cells ZEBRA ([6]; HH514-16, AZA induction 48 h, ibrutinib 5 μM): 14%
expression of EA-D (immunoblot) [3, 10]: significantly reduced
expression of ZEBRA (immunoblot) [3, 10]: significantly reduced
expression of ZEBRA (immunoblot) [3, 9]: significantly reduced
expression of EA-D (immunoblot) [7]: significantly reduced
expression of ZEBRA (immunoblot) [7]: significantly reduced
Percent positive cells ZEBRA ([8]; ibrutinib 0.25 μM): 7%
Percent positive cells ZEBRA ([8]; ibrutinib 0.5 μM): 7%
Percent positive cells ZEBRA ([8]; ibrutinib 1 μM): 5.5%
Percent positive cells ZEBRA ([8]; ibrutinib 2 μM): 5.7%
Percent positive cells ZEBRA ([8]; ibrutinib 5 μM): 5.7%
levels of ZEBRA (flow cytometry, in words) ([8]; rabbit-anti human IgG 24 hours, varying concentrations): decreased
